As a reminder, the IC50 is the midpoint of a concentration-inhibition curve.

A value given as a limit tells only on which side of the number the result lay.

We go through 14 compounds from patent publication US6855730B2, “3-methylidenyl-2-indolinone modulators of protein kinase” (Sugen, Inc., priority 1998, dated 2005).

One assay has as its target T1, PDGFR-β (Homo sapiens, UniProt P09619).
T1 construct: host or cells: NIH 3T3
Nature of the assay: Biochemical PDGFR assay (ELISA, PDGFR-β expressing NIH 3T3 cell lysate). To be noted: read-out: bio PDGF IC50. The source says: This assay measures the in vitro kinase activity of PDGFR using ELISA.
Unless otherwise noted, the preparation of working solution-of the following reagents is the same as that for the Biochemical EGFR assay, above. • 1. […] 28D4C10 monoclonal anti-PDGFR antibody (Biochemistry Lab, SUGEN, Inc.). • 3. PBS (Dulbecco's Phosphate-Buffered Saline, Gibco Catalog No. 450-1300EB) • 4. TBST Buffer. • 5. Blocking Buffer. • 6. PDGFR-β expressing NIH 3T3 cell lysate (Screening Lab, SUGEN, Inc.). • 7. TBS Buffer. • 8. TBS+10% DMSO. • 9. […] MnCl2. • 11. Kinase buffer phosphorylation mix.
• 12. NUNC 96-well V bottom polypropylene plates (Applied Scientific Cat. No. AS-72092). • 13. Ethylenediaminetetraacetic acid (EDTA). • 14. Rabbit polyclonal anti-phosphotyrosine serum (Biochemistry Lab, SUGEN, Inc.). • 15. Goat anti-rabbit IgG peroxidase conjugate (Biosource Cat. No. ALI0404). • 16. 2,2′-azino-bis(3-ethylbenzthiazoline-6-sulfonic acid) (ABTS, Sigma Cat. No. A-1888). • 17. Hydrogen peroxide 30% solution (Fisher Cat. No. H325). • 18. ABTS/H2O2. • 19. 0.2 M HCl.
Procedure • 1. Coat Corning 96 well ELISA plates with 0.5 μg 28D4C10 in 100 μl PBS per well, store overnight at 4° C. • 2. Remove unbound 28D4C10 from wells by inverting plate to remove liquid. Wash 1× with dH2O. Pat the plate on a paper towel to remove excess liquid. • 3. Add 150 μl of Blocking Buffer to each well. Incubate for 30 min. at room temperature with shaking. • 4. Wash plate 3× with deionized water, then once with TBST. Pat plate on a paper towel to remove excess liquid and bubbles. • 5. Dilute lysate in HNTG (10 μg lysate/100 μl HNTG) • 6. Add 100 μl of diluted lysate to each well. Shake at room temperature for 60 min. • 7. Wash plates as described in 4, above. • 8. Add 80 μl working kinase buffer mix to ELISA plate containing captured PDGFR. • 9. Dilute test compound 1:10 in TBS in 96-well polypropylene plates (i.e., 10 μl compound+90 μl TBS). • 10. Add 10 μl diluted test compound to ELISA plate. […] Incubate for 30 minutes while shaking at room temperature. • 12. Add 10 μl ATP directly to all wells except negative control well (final well volume should be approximately 100 μl with 20 μM ATP in each well.) Incubate 30 minutes while shaking. • 13. After 30 minutes, stop reaction by adding 10 μl of 200 mM EDTA (pH 8.0) to each well. • 14. Wash 4× with deionized water, twice with TBST. • 15. Add 100 μl anti-phosphotyrosine (1:3000 dilution in TBST) per well. Incubate 30-45 min. at room temperature, with shaking. • 16. Wash as described in 4, above. • 17. Add 100 μl Biosource Goat anti-rabbit IgG peroxidase conjugate (1:2000 dilution in TBST) to each well. Incubate 30 min. at room temperature, with shaking. • 18. Wash as described in 4, above. • 19. Add 100 μl of ABTS/H2O2 solution to each well. • 20. Incubate 10 to 30 minutes with shaking. Remove any bubbles. • 21. If necessary stop reaction with the addition of 100 μl 0.2 M HCl per well. • 22. Read assay on Dynatech MR7000 ELISA reader: test filter: 410 nM, reference filter: 630 nM.

For assay [1], the target named is Myc-GyrB-FGFR fusion protein (Homo sapiens, UniProt P11362). Nature of the assay: Biochemical FGFR assay (ELISA). The following applies: read-out: bio fgfR1 IC50.
The next assay deals with T2, flkGST (Homo sapiens, UniProt P35968).
T2 construct: GST
Briefly: bio flkGST assay. It counts as biochemical.

In assay [2] the target is T3, chimeric receptor containing the EGFR extracellular domain and intracellular HER2 kinase domain (Homo sapiens, UniProt P04626).
T3 construct: fused on or other part: EGFR ectodomain + HER2 intracellular part, ATP-site indolinones: HER2's kinase
Briefly: EGF Receptor-HER2 chimeric receptor assay in whole cells (ELISA). To be noted: read-out: HER-2 kinase IC50. It counts as cell-based. As to the method:
EGF Receptor-HER2 Chimeric Receptor Assay In Whole Cells.
HER2 kinase activity in whole EGFR-NIH3T3 cells are measured as described below:
• a. […] 05-101 (UBI) (a monoclonal antibody recognizing an EGFR extracellular domain). • c. Anti-phosphotyrosine antibody (anti-Ptyr) (polyclonal) (see, Fendley, et al., supra). • d. Detection antibody: Goat anti-rabbit IgG horseradish peroxidase conjugate, TAGO, Inc., Burlingame, Calif. • e. TBST buffer:
• h. Stock reagents of:
Pre-coat ELISA Plate • 1. […] Coated plates are good for up to 10 days when stored at 4° C. • 2. On day of use, remove coating buffer and replace with 100 μl blocking buffer (5% Carnation Instant Non-Fat Dry Milk in PBS). Incubate the plate, shaking, at room temperature (about 23° C. to 25° C.) for 30 minutes. Just prior to use, remove blocking buffer and wash plate 4 times with TBST buffer.
Seeding Cells • 1. An NIH3T3 cell line overexpressing a chimeric receptor containing the EGFR extracellular domain and intracellular HER2 kinase domain can be used for this assay. • 2. Choose dishes having 80-90% confluence for the experiment. Trypsinize cells and stop reaction by adding 10% fetal bovine serum. Suspend cells in DMEM medium (10% CS DMEM medium) and centrifuge once at 1500 rpm, at room temperature for 5 minutes. • 3. Resuspend cells in seeding medium (DMEM, 0.5% bovine serum), and count the cells using trypan blue. Viability above 90% is acceptable. Seed cells in DMEM medium (0.5% bovine serum) at a density of 10,000 cells per well, 100 μl per well, in a 96 well microtiter plate. Incubate seeded cells in 5% CO2. at 37° C. for about 40 hours.
Assay Procedures • 1. Check seeded cells for contamination using an inverted microscope. Dilute drug stock (10 mg/ml in DMSO) 1:10 in DMEM medium, then transfer 5 μl to a […] well for a final drug dilution of 1:200 and a final DMSO concentration of 1%. Control wells receive DMSO alone. Incubate in 5% CO2 at 37° C. for two hours. • 2. Prepare EGF ligand: dilute stock EGF in DMEM so that upon transfer of 10 μl dilute EGF (1:12 dilution), 100 nM final concentration is attained. • 3. Prepare fresh HNTG* sufficient for 100 μl per well, and place on ice.
• 4. After 120 minutes incubation with drug, add prepared […] ligand to cells, 10 μl per well, to a final concentration of 100 nM. Control wells receive DMEM alone. Incubate with shaking, at room temperature, for 5 minutes. • 5. Remove drug, EGF, and DMEM. Wash cells twice with PBS. Transfer HNTG* to cells, 100 μl per well. Place on ice for 5 minutes. Meanwhile, remove blocking buffer from other ELISA plate and wash with TBST as described above. • 6. With a pipette tip securely fitted to a micropipettor, scrape cells from plate and homogenize cell material by repeatedly aspirating and dispensing the HNTG* lysis buffer. Transfer lysate to a coated, blocked, and washed ELISA plate. Incubate shaking at room temperature for one hour. • 7. Remove lysate and wash 4 times with TBST. Transfer freshly diluted anti-Ptyr antibody to ELISA plate at 100 μl per well. Incubate shaking at room temperature for 30 minutes in the presence of the anti-Ptyr antiserum (1:3000 dilution in TBST). • 8. Remove the anti-Ptyr antibody and wash 4 times with TBST. Transfer the freshly diluted TAGO anti-rabbit IgG antibody to the ELISA plate at 100 μl per well. Incubate shaking at room temperature for 30 minutes (anti-rabbit IgG antibody: 1:3000 dilution in TBST). • 9. Remove TAGO detection antibody and wash 4 times with TBST. Transfer freshly prepared ABTS/H2O2 solution to ELISA plate, 100 μl per well. Incubate shaking at room temperature for 20 minutes. (ABTS/H2O2 solution: 1.0 μl 30% H2O2 in 10 ml ABTS stock). • 10. Stop reaction by adding 50 μl 5N H2SO4 (optional), and determine O.D. at 410 nm. • 11. The maximal phosphotyrosine signal is determined by subtracting the value of the negative controls from the positive controls. […]

T1 sequence (P09619 33-1106): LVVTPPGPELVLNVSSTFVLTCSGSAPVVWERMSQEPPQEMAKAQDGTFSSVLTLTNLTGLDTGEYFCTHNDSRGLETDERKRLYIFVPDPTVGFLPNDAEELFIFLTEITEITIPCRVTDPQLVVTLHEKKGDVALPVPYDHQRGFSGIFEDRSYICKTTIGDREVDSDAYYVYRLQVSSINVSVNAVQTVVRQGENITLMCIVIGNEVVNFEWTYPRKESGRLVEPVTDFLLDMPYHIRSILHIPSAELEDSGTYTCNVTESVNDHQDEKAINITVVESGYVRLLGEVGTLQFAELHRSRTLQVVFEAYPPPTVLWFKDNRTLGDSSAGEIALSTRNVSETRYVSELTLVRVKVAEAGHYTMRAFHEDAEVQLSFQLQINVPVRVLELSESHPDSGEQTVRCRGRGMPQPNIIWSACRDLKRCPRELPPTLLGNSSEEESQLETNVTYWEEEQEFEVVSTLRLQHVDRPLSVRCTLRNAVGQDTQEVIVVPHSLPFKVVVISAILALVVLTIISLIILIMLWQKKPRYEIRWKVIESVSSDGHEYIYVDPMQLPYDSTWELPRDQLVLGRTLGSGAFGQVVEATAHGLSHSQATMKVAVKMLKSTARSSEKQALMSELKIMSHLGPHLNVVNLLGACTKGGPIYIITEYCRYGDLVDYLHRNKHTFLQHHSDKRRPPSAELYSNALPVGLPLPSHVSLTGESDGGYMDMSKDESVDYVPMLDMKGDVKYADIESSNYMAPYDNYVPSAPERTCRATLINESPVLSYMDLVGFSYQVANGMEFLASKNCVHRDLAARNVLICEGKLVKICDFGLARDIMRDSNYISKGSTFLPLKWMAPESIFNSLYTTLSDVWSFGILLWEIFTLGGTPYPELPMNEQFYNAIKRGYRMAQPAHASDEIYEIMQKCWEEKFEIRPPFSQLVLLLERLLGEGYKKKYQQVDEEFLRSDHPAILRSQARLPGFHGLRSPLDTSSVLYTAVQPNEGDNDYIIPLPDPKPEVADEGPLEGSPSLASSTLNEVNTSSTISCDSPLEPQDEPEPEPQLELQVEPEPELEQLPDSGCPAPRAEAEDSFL
Sequence of Myc-GyrB-FGFR fusion protein (P11362 478-767 limits assumed): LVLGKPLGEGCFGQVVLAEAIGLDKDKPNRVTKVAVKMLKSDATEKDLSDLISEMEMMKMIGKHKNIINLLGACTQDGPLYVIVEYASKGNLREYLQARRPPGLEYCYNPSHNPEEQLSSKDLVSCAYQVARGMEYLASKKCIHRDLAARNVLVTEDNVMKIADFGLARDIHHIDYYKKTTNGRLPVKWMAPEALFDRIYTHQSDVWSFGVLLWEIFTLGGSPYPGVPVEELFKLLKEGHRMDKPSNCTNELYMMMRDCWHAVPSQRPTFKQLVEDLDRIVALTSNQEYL
T2 sequence (P35968 786-1356 limits assumed): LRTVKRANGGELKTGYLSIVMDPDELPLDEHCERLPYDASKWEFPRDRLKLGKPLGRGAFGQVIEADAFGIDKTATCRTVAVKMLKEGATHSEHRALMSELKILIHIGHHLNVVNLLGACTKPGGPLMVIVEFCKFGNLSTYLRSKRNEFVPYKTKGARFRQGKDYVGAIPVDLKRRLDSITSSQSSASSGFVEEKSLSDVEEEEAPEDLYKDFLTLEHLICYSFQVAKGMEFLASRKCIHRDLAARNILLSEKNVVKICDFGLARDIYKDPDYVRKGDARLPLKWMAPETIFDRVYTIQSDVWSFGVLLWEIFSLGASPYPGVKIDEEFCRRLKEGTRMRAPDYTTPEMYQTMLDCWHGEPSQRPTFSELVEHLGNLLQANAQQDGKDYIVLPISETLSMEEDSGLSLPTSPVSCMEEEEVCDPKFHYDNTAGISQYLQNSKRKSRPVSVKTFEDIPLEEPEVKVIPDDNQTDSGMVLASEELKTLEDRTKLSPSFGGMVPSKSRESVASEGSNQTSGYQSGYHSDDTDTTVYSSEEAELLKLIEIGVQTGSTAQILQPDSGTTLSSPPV
T3 sequence (P04626 720-1255 limits assumed, change not shown): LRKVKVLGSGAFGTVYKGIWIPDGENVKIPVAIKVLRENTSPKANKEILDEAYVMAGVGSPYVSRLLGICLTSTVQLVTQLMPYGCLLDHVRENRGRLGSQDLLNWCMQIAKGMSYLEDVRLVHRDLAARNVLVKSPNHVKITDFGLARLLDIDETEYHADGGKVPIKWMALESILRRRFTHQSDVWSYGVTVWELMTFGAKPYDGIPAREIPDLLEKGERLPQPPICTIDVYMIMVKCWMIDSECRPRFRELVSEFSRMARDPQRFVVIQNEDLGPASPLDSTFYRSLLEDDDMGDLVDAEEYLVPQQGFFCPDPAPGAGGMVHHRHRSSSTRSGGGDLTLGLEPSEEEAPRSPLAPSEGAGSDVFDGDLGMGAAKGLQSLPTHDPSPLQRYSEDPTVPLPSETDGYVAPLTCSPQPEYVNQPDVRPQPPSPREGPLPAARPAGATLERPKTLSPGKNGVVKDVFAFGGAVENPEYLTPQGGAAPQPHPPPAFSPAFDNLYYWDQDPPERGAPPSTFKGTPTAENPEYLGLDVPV

Take `Cc1c(/C=C2\C(=O)Nc3ccccc32)[nH]c2ccccc12` [Example 167, 3-(3-Methyl-1H-indol-2-ylmethylene)-1,3-dihydro-indol-2-one]: the IC50 was greater than 100 µM at PDGFR-β and greater than 20 µM in assay [1].
For `Cc1c(/C=C2\C(=O)Nc3ccc(Cl)cc32)[nH]c2ccccc12` [Example 168, 5-Chloro-3-(3-methyl-1H-indol-2-ylmethylene)-1,3-dihydro-indol-2-one] the same measures were greater than 100 µM and greater than 20 µM.
Consider `CCOC(=O)c1[nH]c(/C=C2\C(=O)Nc3ccccc32)c(CCC(=O)O)c1C` [Example 117, 4-(2-Carboxyethyl)-3-methyl-5-(2-oxo-1,2-dihydroindol-3-ylidenemethyl)-1H-pyrrole-2-carboxylic acid ethyl ester], for which the figures for the IC50 (at PDGFR-β; on flkGST; in assay [1]) were greater than 100 µM, 13.5 µM and greater than 20 µM, respectively.
`CC(=O)c1ccc2c(c1)C(=Cc1[nH]c3ccccc3c1C)C(=O)N2` [Example 157, 5-Acetyl-3-(3-methyl-1H-indol-2-ylmethylene)-1,3-dihydroindol-2-one]: the IC50 is greater than 100 µM at PDGFR-β, greater than 100 µM in assay [2] and greater than 20 µM in assay [1].
`CCOC(=O)c1c(C)[nH]c(/C=C2\C(=O)Nc3ccc(OC)cc32)c1CCCN1CCOCC1` [Example 121, 5-(5-Methoxy-2-oxo-1,2-dihydroindol-3-ylidenemethyl)-2-methyl-4-(3-morpholin-4-ylpropyl)-1H-pyrrole-3-carboxylic acid ethyl ester]: the IC50 came to 26.7 µM at PDGFR-β and 1 µM against flkGST.
Take `O=C1Nc2cc(Cl)ccc2/C1=C/c1cc2ccccc2[nH]1` [Example 162, 6-Chloro-3-(1H-indol-2-ylmethylene)-1,3-dihydro-indol-2-one]: the IC50 at PDGFR-β was 8.02 µM; in assay [1] it was greater than 20 µM.
For the compound `COc1ccc2c(c1)/C(=C/c1[nH]c3ccccc3c1CCCN(C)C)C(=O)N2` [Example 151, 3-[3-(3-Dimethylaminopropyl)-1H-indol-2-ylmethylene]-5-methoxy-1,3-dihydroindol-2-one], the IC50 on PDGFR-β is 0.65 µM; at flkGST, 0.71 µM.
Consider `CCOC(=O)c1c(C)[nH]c(/C=C2\C(=O)Nc3ccc(S(N)(=O)=O)cc32)c1CCCN(C)C` [Example 133, 4-(3-Dimethylaminopropyl)-2-methyl-5-(2-oxo-5-sulfamoyl-1,2-dihydroindol-3-ylidenemethyl)-1H-pyrrole-3-carboxylic acid ethyl ester], for which the figures for the IC50 on PDGFR-β and on flkGST were 2.69 µM and 8.18 µM, respectively.
As to `Cc1ccc2c(c1)/C(=C/c1[nH]c3ccccc3c1C)C(=O)N2` [Example 152, 5-Methyl-3-(3-methyl-1H-indol-2-ylmethylene)-1,3-dihydro-indol-2-one], the half-maximal inhibitory concentration (IC50) in assay [2] is greater than 100 µM; in assay [1], greater than 20 µM.
For the compound `Cc1c(/C=C2\C(=O)Nc3ccc(S(N)(=O)=O)cc32)[nH]c2ccccc12` [Example 153, 3-(3-Methyl-1H-indol-2-ylmethylene)-2-oxo-2,3-dihydro-1H-indole-5-sulfonic acid amide], the IC50 on PDGFR-β is greater than 100 µM; in assay [2], greater than 100 µM; in assay [1], greater than 20 µM.
As to `O=C1Nc2ccc(Cl)cc2/C1=C/c1cc2ccccc2[nH]1` [Example 164, 5-Chloro-3-(1H-indol-2-ylmethylene)-1,3-dihydro-indol-2-one], the results for the IC50 (on PDGFR-β; in assay [2]; in assay [1]) were greater than 100 µM, greater than 100 µM and greater than 20 µM, respectively.
Turning to `CCOC(=O)c1c(C)[nH]c(/C=C2\C(=O)Nc3ccc(S(=O)(=O)NC)cc32)c1CCCN1CCCC1` [Example 126, 2-Methyl-5-(5-methylsulfamoyl-2-oxo-1,2-dihydroindol-3-ylidenemethyl)-4-(3-pyrrolidin-1-ylpropyl)-1H-pyrrole-3-carboxylic acid ethyl ester], the IC50 was found to be 63.3 µM on PDGFR-β and 14.8 µM at flkGST.
Turning to `NS(=O)(=O)c1ccc2c(c1)/C(=C/c1cc3ccccc3[nH]1)C(=O)N2` [Example 159, 3-(1H-Indol-2-ylmethylene)-2-oxo-2,3-dihydro-1H-indole-5-sulfonic acid amide], the half-maximal inhibitory concentration (IC50) on PDGFR-β was 74.1 µM; against flkGST it was 2.87 µM; in assay [1], greater than 20 µM.
In the case of `O=C1Nc2ccccc2/C1=C/c1cc2ccccc2[nH]1` [Example 163, 3-(1H-Indol-2-ylmethylene)-1,3-dihydro-indol-2-one], the IC50 on PDGFR-β is greater than 100 µM; in assay [1], greater than 20 µM.
